2 compounds from patent publication US10815230B2, “Casein kinase 1 delta inhibitor” (ELECTROPHORETICS LIMITED, priority 2015, dated 2020) can be followed below.

For one experiment, the target named is AKT1 (Homo sapiens, UniProt P31749). As to the kind of experiment: KINOMEscan binding assay. To be noted: read-out: % Ctrl @ 10000 nM.
Another experiment deals with CAMK2B (Homo sapiens, UniProt Q13554). In words: KINOMEscan binding assay. To be noted: read-out: % Ctrl @ 10000 nM.
The target in another experiment is CAMKK2 (Homo sapiens, UniProt Q96RR4). As to the kind of experiment: KINOMEscan binding assay. To be noted: read-out: % Ctrl @ 10000 nM.
Chain of CAMKK2 (Q96RR4 whole entry): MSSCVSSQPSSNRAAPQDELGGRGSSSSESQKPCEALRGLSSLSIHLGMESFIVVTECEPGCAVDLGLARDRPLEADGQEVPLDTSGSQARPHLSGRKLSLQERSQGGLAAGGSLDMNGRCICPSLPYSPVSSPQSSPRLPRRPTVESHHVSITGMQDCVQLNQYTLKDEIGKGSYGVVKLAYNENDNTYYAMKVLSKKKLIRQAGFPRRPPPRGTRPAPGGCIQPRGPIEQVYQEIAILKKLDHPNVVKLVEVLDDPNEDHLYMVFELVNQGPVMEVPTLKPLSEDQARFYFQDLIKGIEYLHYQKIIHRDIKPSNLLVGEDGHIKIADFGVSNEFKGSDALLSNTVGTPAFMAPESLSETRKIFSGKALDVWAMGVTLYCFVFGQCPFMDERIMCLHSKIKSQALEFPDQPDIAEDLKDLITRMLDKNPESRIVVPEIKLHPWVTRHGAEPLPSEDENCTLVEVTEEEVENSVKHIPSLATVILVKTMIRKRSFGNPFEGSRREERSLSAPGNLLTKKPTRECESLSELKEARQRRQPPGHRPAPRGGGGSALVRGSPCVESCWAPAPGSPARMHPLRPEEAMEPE
The target of another experiment is EPHA1 (Homo sapiens, UniProt P21709). As to the kind of experiment: KINOMEscan binding assay. The settings on record: read-out: % Ctrl @ 10000 nM.
The target in the next experiment is FES (Homo sapiens, UniProt P07332). As to the kind of experiment: KINOMEscan binding assay. The settings on record: read-out: % Ctrl @ 10000 nM.
A further experiment concerns the target FLT3 (Homo sapiens, UniProt P36888). In words: KINOMEscan binding assay. To be noted: read-out: % Ctrl @ 10000 nM.
In a further experiment the test system is FLT3 (ITD). As to the kind of experiment: KINOMEscan binding assay.
For the next experiment, the target named is IGF1R (Homo sapiens, UniProt P08069). As to the kind of experiment: KINOMEscan binding assay. To be noted: read-out: % Ctrl @ 10000 nM.
The target in the next experiment is KIT (V559D) (Homo sapiens, UniProt P10721, V559D). As to the kind of experiment: KINOMEscan binding assay. The settings on record: read-out: % Ctrl @ 10000 nM.
The next experiment concerns the target MET (Y1235D) (Homo sapiens, UniProt P08581, Y1235D). As to the kind of experiment: KINOMEscan binding assay. To be noted: read-out: % Ctrl @ 10000 nM.
Another experiment deals with MLCK (Homo sapiens, UniProt Q32MK0). In words: KINOMEscan binding assay. To be noted: read-out: % Ctrl @ 10000 nM.
Chain of MLCK (Q32MK0 whole entry): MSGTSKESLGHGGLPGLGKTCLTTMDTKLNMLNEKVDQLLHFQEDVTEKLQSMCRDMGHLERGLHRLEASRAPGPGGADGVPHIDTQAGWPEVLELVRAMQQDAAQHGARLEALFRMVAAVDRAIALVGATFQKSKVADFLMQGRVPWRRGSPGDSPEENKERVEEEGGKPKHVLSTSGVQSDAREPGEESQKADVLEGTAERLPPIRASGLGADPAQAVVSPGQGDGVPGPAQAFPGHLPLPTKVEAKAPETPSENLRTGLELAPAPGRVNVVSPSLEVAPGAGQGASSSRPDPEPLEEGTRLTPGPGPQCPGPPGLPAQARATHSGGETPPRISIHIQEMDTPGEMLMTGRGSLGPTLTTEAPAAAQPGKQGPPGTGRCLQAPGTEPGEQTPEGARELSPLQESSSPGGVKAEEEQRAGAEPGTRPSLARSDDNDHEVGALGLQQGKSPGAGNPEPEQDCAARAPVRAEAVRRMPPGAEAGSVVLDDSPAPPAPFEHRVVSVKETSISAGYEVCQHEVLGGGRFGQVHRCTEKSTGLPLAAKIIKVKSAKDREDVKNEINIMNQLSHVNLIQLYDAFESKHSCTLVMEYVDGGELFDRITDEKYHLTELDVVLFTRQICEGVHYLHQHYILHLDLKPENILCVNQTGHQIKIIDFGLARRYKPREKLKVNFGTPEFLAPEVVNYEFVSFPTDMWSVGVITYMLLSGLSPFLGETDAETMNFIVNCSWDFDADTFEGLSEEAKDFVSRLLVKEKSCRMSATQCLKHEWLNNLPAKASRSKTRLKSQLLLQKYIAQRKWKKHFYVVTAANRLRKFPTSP
A further experiment addresses PKAC-alpha (Homo sapiens, UniProt P17612). As to the kind of experiment: KINOMEscan binding assay. To be noted: read-out: % Ctrl @ 10000 nM.
The next experiment addresses SgK110 (Homo sapiens, UniProt P0C264). As to the kind of experiment: KINOMEscan binding assay. To be noted: read-out: % Ctrl @ 10000 nM.
The target of another experiment is SRC (Homo sapiens, UniProt P12931). In words: KINOMEscan binding assay. The settings on record: read-out: % Ctrl @ 10000 nM.
Chain of SRC (P12931 whole entry): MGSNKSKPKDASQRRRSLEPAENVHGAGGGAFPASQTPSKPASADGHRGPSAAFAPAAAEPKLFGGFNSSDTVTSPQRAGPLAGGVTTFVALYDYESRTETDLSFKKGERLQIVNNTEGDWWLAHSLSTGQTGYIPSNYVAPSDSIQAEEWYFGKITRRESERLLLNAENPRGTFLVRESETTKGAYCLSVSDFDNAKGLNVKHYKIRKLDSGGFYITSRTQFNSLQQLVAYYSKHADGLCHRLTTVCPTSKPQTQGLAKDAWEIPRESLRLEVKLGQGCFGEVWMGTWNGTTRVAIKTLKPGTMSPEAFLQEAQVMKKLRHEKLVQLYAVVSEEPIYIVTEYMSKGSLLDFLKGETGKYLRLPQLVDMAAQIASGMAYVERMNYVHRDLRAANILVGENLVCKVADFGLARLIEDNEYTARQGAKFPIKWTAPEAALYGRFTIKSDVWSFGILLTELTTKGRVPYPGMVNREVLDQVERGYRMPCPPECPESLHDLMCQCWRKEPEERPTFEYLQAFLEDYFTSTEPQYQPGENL
Another experiment concerns non-mutant kinases. As to the kind of experiment: KINOMEscan kinase screening panel, binding capacity and Selectivity Score. To be noted: 10 μM, 395 non-mutant kinases.

Chain of SgK110 (P0C264 whole entry): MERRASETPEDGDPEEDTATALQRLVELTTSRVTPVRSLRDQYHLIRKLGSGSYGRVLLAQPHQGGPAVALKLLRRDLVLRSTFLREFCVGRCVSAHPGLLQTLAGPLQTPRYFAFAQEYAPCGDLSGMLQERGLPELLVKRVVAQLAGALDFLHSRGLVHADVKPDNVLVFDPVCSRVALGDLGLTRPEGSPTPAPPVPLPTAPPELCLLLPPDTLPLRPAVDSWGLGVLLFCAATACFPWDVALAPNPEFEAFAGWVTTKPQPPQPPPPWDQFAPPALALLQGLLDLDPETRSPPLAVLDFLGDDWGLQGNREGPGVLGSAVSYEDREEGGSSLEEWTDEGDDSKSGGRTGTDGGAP
Chain of CAMK2B (Q13554 whole entry): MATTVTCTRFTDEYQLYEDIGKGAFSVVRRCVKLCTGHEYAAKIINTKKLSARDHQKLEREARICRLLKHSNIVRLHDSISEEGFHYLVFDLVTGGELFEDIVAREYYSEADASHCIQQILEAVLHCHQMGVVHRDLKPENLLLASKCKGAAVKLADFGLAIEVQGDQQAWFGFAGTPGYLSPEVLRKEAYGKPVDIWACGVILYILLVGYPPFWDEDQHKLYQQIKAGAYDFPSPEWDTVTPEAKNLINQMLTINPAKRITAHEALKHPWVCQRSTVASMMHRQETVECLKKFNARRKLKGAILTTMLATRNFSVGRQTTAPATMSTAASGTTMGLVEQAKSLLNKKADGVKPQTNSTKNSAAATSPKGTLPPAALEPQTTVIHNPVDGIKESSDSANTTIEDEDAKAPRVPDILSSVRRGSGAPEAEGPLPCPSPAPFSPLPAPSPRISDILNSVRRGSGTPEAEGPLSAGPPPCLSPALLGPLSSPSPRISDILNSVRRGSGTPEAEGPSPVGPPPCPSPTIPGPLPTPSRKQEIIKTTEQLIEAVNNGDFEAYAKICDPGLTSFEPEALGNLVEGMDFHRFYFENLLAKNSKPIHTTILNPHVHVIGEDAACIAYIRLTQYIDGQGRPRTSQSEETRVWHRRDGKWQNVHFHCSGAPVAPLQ
Chain of FLT3 (P36888 27-993): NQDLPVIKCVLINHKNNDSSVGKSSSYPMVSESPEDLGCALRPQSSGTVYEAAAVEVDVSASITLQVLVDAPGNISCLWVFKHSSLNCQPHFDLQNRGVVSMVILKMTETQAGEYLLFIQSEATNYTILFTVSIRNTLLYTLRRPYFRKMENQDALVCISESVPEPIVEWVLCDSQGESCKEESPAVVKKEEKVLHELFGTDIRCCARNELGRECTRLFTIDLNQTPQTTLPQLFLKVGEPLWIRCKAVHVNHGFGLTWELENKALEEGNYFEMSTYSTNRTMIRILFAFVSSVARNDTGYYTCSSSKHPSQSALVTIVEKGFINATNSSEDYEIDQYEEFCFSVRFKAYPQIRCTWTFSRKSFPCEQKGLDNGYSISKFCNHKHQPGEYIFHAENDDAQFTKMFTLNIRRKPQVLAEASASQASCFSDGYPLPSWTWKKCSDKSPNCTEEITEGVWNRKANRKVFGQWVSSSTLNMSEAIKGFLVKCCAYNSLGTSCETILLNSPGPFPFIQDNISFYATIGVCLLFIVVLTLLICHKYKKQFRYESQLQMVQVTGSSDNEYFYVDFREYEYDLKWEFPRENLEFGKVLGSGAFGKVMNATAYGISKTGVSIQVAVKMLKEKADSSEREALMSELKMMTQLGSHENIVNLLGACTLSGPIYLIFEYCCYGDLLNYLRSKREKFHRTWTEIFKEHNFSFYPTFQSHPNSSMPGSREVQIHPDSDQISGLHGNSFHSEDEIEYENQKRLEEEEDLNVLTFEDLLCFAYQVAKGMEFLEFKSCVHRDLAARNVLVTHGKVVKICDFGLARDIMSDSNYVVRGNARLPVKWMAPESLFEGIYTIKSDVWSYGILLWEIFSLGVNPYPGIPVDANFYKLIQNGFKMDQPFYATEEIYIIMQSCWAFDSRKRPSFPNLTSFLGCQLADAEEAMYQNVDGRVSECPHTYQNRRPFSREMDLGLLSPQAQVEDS
Chain of AKT1 (P31749 whole entry): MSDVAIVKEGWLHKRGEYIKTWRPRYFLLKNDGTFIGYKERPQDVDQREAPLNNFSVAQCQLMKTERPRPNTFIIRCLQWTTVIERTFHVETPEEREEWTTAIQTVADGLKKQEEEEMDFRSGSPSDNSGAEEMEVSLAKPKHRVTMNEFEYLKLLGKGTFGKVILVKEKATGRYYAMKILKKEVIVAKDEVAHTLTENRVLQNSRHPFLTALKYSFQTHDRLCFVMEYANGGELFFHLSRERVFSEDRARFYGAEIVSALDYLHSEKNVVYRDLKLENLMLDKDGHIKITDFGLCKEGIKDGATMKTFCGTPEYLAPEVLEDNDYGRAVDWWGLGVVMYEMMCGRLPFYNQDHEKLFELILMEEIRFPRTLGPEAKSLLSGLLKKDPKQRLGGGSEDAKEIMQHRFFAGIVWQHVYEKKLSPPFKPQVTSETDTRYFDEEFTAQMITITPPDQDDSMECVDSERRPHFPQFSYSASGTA
Description for non-mutant kinases: The assay was carried out according to the established KINOMEscan® technology (DiscoveRx® LeadHunter®, Discovery services, www.discoverx.com). […] Screening “hits” are identified by measuring the amount of kinase captured in test versus control samples by using a quantitative, qPCR method that detects an associated DNA label. For most assays, kinase-tagged T7 phage strains ware grown in parallel in 24-well blocks in an E. coli host derived from the BL21 strain. E. coli were grown to log-phase and infected with T7 phage from a frozen stock (multiplicity of infection=0.4) and incubated with shading at 32° C. until lysis (90-150 minutes). The lysates were centrifuged (6,000×g) and filtered (0.2 μm) to remove cell debris. The remaining kinases were produced in HEK293 cells and subsequently tagged with DMA for qPCR detection. Streptavidin-coated magnetic beads were treated with biotinylated small molecule ligands for 30 minutes at room temperature to generate affinity resins for kinase assays. The liganded beads were blocked with excess biotin and washed with blocking buffer (SeaBlock (Pierce), 1% BSA, 0.05 % Tween 20, 1 mM DTT) to remove unbound ligand and to reduce non-specific phage binding. […] All reactions were performed in polypropylene 384-well plates in a final volume of 0.04 ml. The assay plates were incubated at room temperature with shaking for 1 hour and the affinity beads were washed with wash buffer (1×PBS, 0.05% Tween 20). The beads were then re-suspended in elution buffer (1×PBS, 0.05 % Tween 20, 0.5 μM non-biotinylated affinity ligand) and incubated at room temperature with shaking for 30 minutes. The kinase concentration in the eluates was measured by qPCR.
Results were reported as “% Ctrl”, where lower numbers indicate stronger hits. The calculation of the “% Ctrl” was as follow:
In addition to the binding capacity, the Selectivity Score (or S-score) was calculated (Karaman, M. W. et al. A quantitative analysis of kinase inhibitor selectivity. Nat. Biotechnol. 26, 127-132 (2008). The S-score is a quantitative measure of compound selectivity. It is calculated by dividing the number of kinases that a compound binds to by the total number of distinct kinases tested, excluding mutant variants. S-score−Number of hits/Number of assays
S(35)=(number of non-mutant kinases with % Ctrl<35)/(number of non-mutant kinases tested)
S(10)=(number of non-mutant kinases with % Ctrl<10)/(number of non-mutant kinases tested)
S(1)=(number of non-mutant kinases with % Ctrl<1)/(number of non-mutant kinases tested)
and provides a quantitative method of describing compound selectivity to facilitate comparison of different compounds. The screening concentration was 10 μM.

As for `Nc1ncc(-c2nc3ccccc3o2)c(-c2ccncc2)n1` [Comparative Compound 324, 5-(1,3-benzoxazol-2-yl)-4-(pyridine-4-yl)pyrimidin-2-amine], the remaining binding at 10 µM at AKT1 was determined as 96%; at CAMK2B it was 100%; at CAMKK2, 97%; on EPHA1, 83%; at FES, 78%; on FLT3, 100%. Further, the remaining binding at 10 µM came to 100% on IGF1R; 69% at KIT (V559D); 83% on MET (Y1235D); 94% on MLCK; 91% on PKAC-alpha; 94% at SgK110. The remaining binding at 10 µM at SRC came to 84%. For the same compound, the “% Ctrl @ 10000 nM” value in the experiment with FLT3 (ITD) turned out to be 85 % Ctrl. Also, the “Number of Hits S (1)” value in the experiment on non-mutant kinases (% Ctrl<1) was found to be 0. In the experiment on non-mutant kinases (% Ctrl<1), the “S-score S (1)” value came to 0. Further, the “Number of Hits S (10)” value in the experiment with non-mutant kinases (% Ctrl<10) was determined as 4. Further, the “S-score S (10)” value in the experiment on non-mutant kinases (% Ctrl<10) is reported as 0.01. Also, the “Number of Hits S (35)” value in the experiment on non-mutant kinases (% Ctrl<35) stood at 8. Moreover, the “S-score S (35)” value in the experiment with non-mutant kinases (% Ctrl<35) is listed as 0.02.
As for `CNc1c(C(N)=O)c2ccccn2c1C(=O)c1ccc(F)cc1` [Compound A, 2-methyl-amino-3-[(4-fluorophenyl)carbonyl]indolizine-1-carboxamide], the remaining binding at 10 µM at AKT1 amounted to 91%; on CAMK2B it was 62%; at CAMKK2 it was 82%; on EPHA1, 72%; on FES, 75%; at FLT3 it was 96%. The remaining binding at 10 µM on IGF1R is 99%; at KIT (V559D), 19%; at MET (Y1235D), 77%; at MLCK it was 53%; on PKAC-alpha, 42%; at SgK110, 92%. For the same compound, the remaining binding at 10 µM on SRC came out at 40%.
